Data on 15 compounds can be found in patent publication US12503432B2, “Ionizable lipids for nucleic acid delivery” (Global Life Sciences Solutions Canada ULC, priority 2019, dated 2025).

The nature of data set [1]: LNP characterization: size and PDI by dynamic light scattering, mRNA encapsulation efficiency by RiboGreen assay. The class given is physicochemical. The procedure: Particle sizes and “polydispersity index” (PDI) of the lipid particle were measured by dynamic light scattering (DLS). PDI indicates the width of the particle distribution. This is a parameter calculated from a cumulative analysis of the (DLS)-measured intensity autocorrelation function assuming a single particle size mode and a single exponential fit to the autocorrelation function. […] The particles produced by mechanical micromixers such as the NanoAssemblr® Spark™ and NanoAssemblr® Benchtop (Precision NanoSystems Inc.) are substantially homogeneous in size assuming all other variables are neutral. A lower PDI indicates a more homogenous population of lipid particles. The Spark™ instrument is used in a screening setting to identify the lead compositions. Once the composition is selected, the lipid particle can be fine-tuned using the NanoAssemblr® Benchtop. Once the process parameters Flow Rate Ratio and Total Flow Rate is identified for the specific nanoparticle composition, the nanoparticle technology can be scaled up using the same process parameter values.
Lipid particles were also manufactured by a larger microfluidic mixer instrument, the NanoAssemblr® Ignite™ for testing. Briefly, 350 μL of mRNA was diluted using 100 mM sodium acetate buffer to the required concentration of 0.2 to 0.3 mg/mL. Lipid particle samples were then prepared by running both fluids, namely, nucleic acids in aqueous solvent and Lipid Mix in ethanol at a flow ratio of 3:1 and at a total flow rate of 12 ml/min in the microfluidic mixer. Following mixing in the microfluidic device, the post cartridge lipid nucleic acid particle sample was diluted into RNAse free tubes containing three to 40 volumes of phosphate buffered saline (PBS), pH 7.4. Ethanol was finally removed through dialysis in PBS, pH 7, or using Amicon™ centrifugal filters (Millipore, USA) at 3000 RPM, or using TFF systems. Once the required concentration was achieved, the lipid nucleic acid particles were filter sterilized using 0.2 μm filters in aseptic conditions. Final encapsulation efficiency was measured by the Ribogreen™ assay. Quant-iT™ RiboGreen® RNA Reagent and Kit (Invitrogen) following manufacturer directions.
Messenger RNA or plasmid nucleic acid therapeutic (NAT) as described below, was diluted using sodium acetate buffer to the required concentration. Lipid nucleic acid particle (LNAP) samples were then prepared by running both fluids using the NanoAssemblr® Spark instrument. Briefly, […] of nucleic acids in 100 mM sodium acetate buffer in a total volume of 32 μL was mixed with 16 μL of 37.5 mM lipid mix solution as required by the N/P ratios (4, 6, or 10 in illustrated examples). The microfluidically mixed lipid nucleic acid particles (LNAP) made in the instrument were immediately diluted down with 48 μL Ca++ and Mg++ free 1× PBS at pH 7.4 in the aqueous output well. These LNAP were immediately collected into microcentrifuge tubes containing 96 μL of the same buffer at pH 7.4. Encapsulation efficiency was measured by a modified Ribogreen™ assay (Quanti-iT RiboGreen™ RNA assay kit, Fisher). This information was used to establish the desired dosage.
After the lipid particles were made as described in Example 17, particle size (hydrodynamic diameter of the particles) was determined by Dynamic Light Scattering (DLS) using a ZetaSizer™ Nano ZS™ (Malvern Instruments, UK). He/Ne laser of 633 nm wavelength was used as the light source. Data were measured from the scattered intensity data conducted in backscattering detection mode (measurement angle=173). Measurements were an average of 10 runs of two cycles each per sample. Z-Average size was reported as the particle size, and is defined as the harmonic intensity averaged particle diameter. These LNP characteristics, as well as the results of the mRNA encapsulation efficiency for various Lipid Mixes are also described in the application are shown in Tables 4, 5 and 6. […]

Data set [2] in a line: TNS fluorescence assay: experimental pKa of formulated lipid nanoparticles. Format: physicochemical. To be noted: experimental surface pKa of empty LNP, cationic lipid/DSPC/cholesterol/PEG-lipid (50/10/38.5/1.5). Here is the method: The pKa of each cationic lipid was determined in lipid nanoparticles using an assay based on fluorescence of 6-(p-Toluidino)-2-naphthalenesulfonic acid sodium salt (TNS, Sigma Aldrich), which is a fluorescent probe for the conformational state of proteins^5. Empty lipid nanoparticles comprising of cationic lipid/DSPC/cholesterol/PEG-lipid (50/10/38.5/1.5) in distilled water at a concentration of 3.125 mM total lipid are formulated using NanoAssemblr® Spark™, and were then was characterized for LNP quality on the Zetasizer™ using a 30× dilution with 1×PBS in the low volume cuvette. Lipid nanoparticles were further diluted 4× using distilled water to 0.781 mM total lipid. TNS was prepared as a 25 μM stock solution in distilled water. Then 6.4 μL of diluted LNP samples of 0.781 mM total lipid were mixed with 10 μL of diluted TNS to a final volume of 250 μL with buffer containing 10 mM HEPES, 10 mM MES, 10 mM NH4OAc and 130 mM NaCl where the pH ranged from 3 to 9 in 0.5 pH increments.
Samples were mixed thoroughly, and the fluorescence intensity was measured at room temperature in a BioTek™ Synergy™ H1 Hybrid Multi-Mode Monochromator™ Fluorescence Microplate Reader using excitation and emission wavelengths of 321 nm and 445 nm respectively. A sigmoidal best fit analysis was applied to the fluorescence data using GraphPad Prism™ software, and the pKa was measured as the pH at half-maximal fluorescence intensity.

The subject of another data set is C57BL/6 mice. Kind of data set: In vivo delivery of EPO-encoded mRNA LNP via intravenous route, serum EPO ELISA. To be noted: qualitative grade interpreted from quantitative data. Further details: key to EPO Protein expression: IV in mice: *: The number of asterix symbols indicates protein expression levels interpreted by the inventors from quantitative data; **: The number of asterix symbols indicates protein expression levels interpreted by the inventors from quantitative data; ***: The number of asterix symbols indicates protein expression levels interpreted by the inventors from quantitative data; ****: The number of asterix symbols indicates protein expression levels interpreted by the inventors from quantitative data; *****: The number of asterix symbols indicates protein expression levels interpreted by the inventors from quantitative data; *******: The number of asterix symbols indicates protein expression levels interpreted by the inventors from quantitative data. The source says: Lipid Nanoparticles with the composition IL/DSPC/Cholesterol/PEG-DMG2000 (LM 02—see Table 3) were used to encapsulate recombinant human erythropoietin (EPO) encoded mRNA with 5-moU modifications [TriLink CleanCapo 5-moU EPO mRNA L7201]. To create the LNP, lipid mix in ethanol was microfluidically mixed with a low PH buffered solution of 5-moU EPO mRNA mixer at an N/P ratio of 6 using a NanoAssemblr® Ignite™ microfluidic mixer. The microfluidically mixed particles were downstream processed using Amicon® ultra 15 10 kDa MWCO units (EMD Millipore) filtration technique. The RNA loaded lipid particles were then characterized for size, PDI and Encapsulation Efficiency (EE). Size and PDI were measured using dynamic light scattering techniques described above, and nucleic acid encapsulation efficiency was calculated using a Quant-iT RiboGreen RNA assay as described supra, modified to use hEPO mNA as the standard instead if the standard RNA in the kit. The hydrodynamic diameter of these mRNA-LNPs was ˜70 nm with a PDI in the range of 0.02 to 0.1 and an encapsulation efficiency of ˜97.8%.
Animals were handled according to the Institutional Animal Care and Use Committee ethics protocols. For experiments, 6-8 week old C57BL/6 mice were purchased from Envigo (South Kent, WA, USA). For in vivo activity, female C57BL/6 mice were treated intravenously with EPO mRNA LNPs at specified dosages of 0.5-3 mg/Kg. Samples of 50-75 μL of blood were collected 6 h post administration via saphenous vein, and at regular time intervals of 24 h or 48 h.
After harvest, blood was immediately prepared to produce serum samples using standard techniques, and stored at −80 degrees C. Briefly, after collection, the blood was allowed to clot at room temperature for 15-30 minutes. The clot was removed by centrifuging the tubes at 1000-2000×g for 10 min at 4 degrees Celsius. The clear golden-yellow color supernatant was carefully removed and transferred to sterile screw-capped clear polypropylene tubes on ice. The serum was then stored, if necessary, at −80° C. until analysis.
Samples were thawed, then analyzed at appropriate dilutions for EPO protein expression and for cytokine/chemokine levels. The total serum EPO levels were evaluated using Quantikine® IVD EPO ELISA kit (Bio-Techne, Minneapolis, MN, USA).
Following i.v administration of a 0.5 mg/Kg dose of recombinant human EPO-encoded mRNA LNPs containing ionizable lipid MC3, PNI 121 or PNI 123 using the LM02 composition at N/P 6, EPO expression levels at 6 h (upper, FIG. 6) and at 24 h (lower, FIG. 6) in C56BL/6 mice were examined; hEPO protein was measured using Quantikine® IVD® ELISA Human Erythropoietin Immunoassay protocol.
(In general: ELISA stands for enzyme-linked immunosorbent assay.)

Setting [3] is: 5-moU EPO encoded LNPs, IL:DSPC:cholesterol:DMG-PEG (50:10:38.5:1.5), N/P 6.
[4] abbreviates: OVA encoded LNPs, payload WT OVA, LM02, N/P 8.
[5] abbreviates: Table 4 LNPs, payload and lipid mix not stated.

One may read the pKa as the negative logarithm of the acid dissociation constant.

In the case of `CC/C=C\CC1C(CC(=O)OCC(COCCCCCCCC/C=C\C/C=C\CCCCC)OCCCCCCCC/C=C\C/C=C\CCCCC)CCC1OC(=O)CCN(C)C` (centres unmarked) [PNI 128], in data set [1] (setting [3]), the “Diameter (Z. ave, nm)” value was determined as 64.8 nm; the “Encapsulation Efficiency (%)” value came to 97.1%; the “Polydispersity Index (PDI)” value is listed as 0.04. In data set [1] (setting [4]), the “Diameter (Z. ave, nm)” value stood at 74.9 nm; the “Encapsulation Efficiency (%)” value is given as 97.0%; the “Polydispersity Index (PDI)” value worked out at 0.02. Besides, in data set [1] (setting [5]), the “Diameter (Z. ave, nm)” value was 61.7 nm; the “Encapsulation Efficiency (%)” value came to 88.2%; the “Polydispersity Index (PDI)” value is recorded as 0.09. The pKa in data set [2] worked out at 5.56. In addition, the “EPO Protein expression: IV in mice” value with C57BL/6 mice was “****”.
For the compound `CC/C=C\CC1C(CC(=O)OCC(COCCCCCCCC/C=C\C/C=C\CCCCC)OCCCCCCCC/C=C\C/C=C\CCCCC)CCC1OC(=O)C1CCN(C)C1` (centres unmarked) [PNI 135], the pKa in data set [2] turned out to be 5.48.
As to `CC/C=C\CC1C(CC(=O)OCC(COCCCCCCCC/C=C\C/C=C\CCCCC)OCCCCCCCC/C=C\C/C=C\CCCCC)CCC1OC(=O)Cc1cn(C)cn1` (centres unmarked) [PNI 143], in data set [1] (setting [3]), the “Diameter (Z. ave, nm)” value is 88.0 nm; the “Encapsulation Efficiency (%)” value is 98.7%; the “Polydispersity Index (PDI)” value was 0.87. For the same compound, the pKa in data set [2] was determined as 4.31.
Turning to `CCCCC/C=C\C/C=C\CCCCCCCCOCC(COC(=O)CC1CCC(OC(=O)CCCN(C)C)C1)OCCCCCCCC/C=C\C/C=C\CCCCC` (centres unmarked) [PNI 148], the pKa in data set [2] amounted to 6.77.
`CC/C=C\CC1C(CC(=O)OCC(COC(=O)CCCCCCC/C=C\C/C=C\CCCCC)OC(=O)CCCCCCC/C=C\C/C=C\CCCCC)CCC1OC(=O)CCCN(C)C` (centres unmarked) [PNI 269]: the pKa in data set [2] stood at 6.28.
Turning to `CC/C=C\CC1C(CC(=O)OCCC(CCCCCCCC/C=C\C/C=C\CCCCC)OC(=O)C(CCCCCC)CCCCCCCC)CCC1OC(=O)CCCN(C)C` (centres unmarked) [PNI 510], in data set [2], the pKa came out at 6.2.
With `CC/C=C\CC1C(CC(=O)OCC(COC(=O)CCCCCCCC2CC2CCCCCCCC)OC(=O)CCCCCCCC2CC2CCCCCCCC)CCC1OC(=O)CCCN(C)C` (centres unmarked) [PNI 515], the pKa in data set [2] came out at 6.27.
For `CC/C=C\CC1C(CC(=O)OCC(COCCCCCCCCC2CC2CCCCCCCC)OCCCCCCCCC2CC2CCCCCCCC)CCC1OC(=O)CCCN(C)C` (centres unmarked) [PNI 543], in data set [1] (setting [3]), the “Diameter (Z. ave, nm)” value amounted to 73.6 nm; the “Encapsulation Efficiency (%)” value is 98.7%; the “Polydispersity Index (PDI)” value is recorded as 0.14. In addition, the pKa in data set [2] was found to be 6.31. In the data set on C57BL/6 mice, the “EPO Protein expression: IV in mice” value is recorded as “***”.
As to `CC/C=C\CC1C(CC(=O)OCC(COCCCCCCCCCCCCCC)OCCCCCCCCCCCCCC)CCC1OC(=O)CCN(C)C` (centres unmarked) [PNI 547], the pKa in data set [2] turned out to be 5.95.
On to `CCCCCCCCCCCCCCOCC(COC(=O)CC1CCC(OC(=O)CCN(C)C)C1CCCCC)OCCCCCCCCCCCCCC` (centres unmarked) [PNI 548], for which the pKa in data set [2] turned out to be 5.5.
On to `CC/C=C\CC1C(CC(=O)OCC(COC(=O)CCCCCCCC2CC2CCCCCCCC)OC(=O)CCCCCCCC2CC2CCCCCCCC)CCC1OC(=O)CCN(C)C` (centres unmarked) [PNI 551], for which, in data set [2], the pKa was 5.5.
Regarding `CC/C=C\CC1C(CC(=O)OCCC(CCCCCCCC/C=C\C/C=C\CCCCC)OC(=O)C(CCCCCC)CCCCCCCC)CCC1OC(=O)CCN(C)C` (centres unmarked) [PNI 552], in data set [2], the pKa worked out at 5.42.
For `CC/C=C\CC1C(CC(=O)OCCC(CCCCCCCC)OC(=O)C(CCCCCC)CCCCCCCC)CCC1OC(=O)CCCN(C)C` (centres unmarked) [PNI 562], the pKa in data set [2] was 6.36.
In the case of `CC/C=C\CC1C(CC(=O)OCCC(CCCCCCCC/C=C\C/C=C\CCCCC)OC(=O)C(CCCCCC)CCCCCCCC)CCC1OC(=O)C1(C)CCN(C)CC1` (centres unmarked) [PNI 563], the pKa in data set [2] amounted to 5.96.
Take `CC/C=C\CC1C(CC(=O)OCC(COCCCCCCCC/C=C\C/C=C\CCCCC)OCCCCCCCC/C=C\C/C=C\CCCCC)CCC1OC(=O)CN1CCN(C)CC1` (centres unmarked) [PNI 567]: the pKa in data set [2] was found to be 6.23.
